Laboratory results from the NIST ThermoML archive (doi:10.1016/j.fluid.2007.09.028).
Numbers after ± are expanded uncertainties.

How the values were obtained:
[1] = 101 kPa, Liquid
[2] = xn = mol fraction of the nth substance listed; conditions: 101 kPa, Liquid, x1 = 1

SMILES	mass density ([1]; 303.15 K)	mass density ([1]; 308.15 K)	mass density ([1]; 313.15 K)	mass density ([1]; 318.15 K)	mass density ([1]; 323.15 K)	mass density ([2]; 303.15 K)	mass density ([2]; 308.15 K)	mass density ([2]; 313.15 K)	mass density ([2]; 318.15 K)	mass density ([2]; 323.15 K)	mass density ([1]; 288.15 K)	mass density ([1]; 293.15 K)	mass density ([1]; 298.15 K)	mass density ([2]; 288.15 K)	mass density ([2]; 293.15 K)	mass density ([2]; 298.15 K)
CC(C)(C)O [2-methylpropan-2-ol]	775.412 ± 0.49 kg/m3	770.193 ± 0.49 kg/m3	764.884 ± 0.5 kg/m3	759.488 ± 0.51 kg/m3	754.015 ± 0.52 kg/m3											
CC(C)(C)O [2-methylpropan-2-ol] + Clc1ccccc1						775.412 ± 0.49 kg/m3	770.193 ± 0.49 kg/m3	764.884 ± 0.5 kg/m3	759.488 ± 0.51 kg/m3	754.015 ± 0.52 kg/m3						
CCCCO [butan-1-ol]	801.923 ± 0.47 kg/m3	798.053 ± 0.47 kg/m3	794.147 ± 0.48 kg/m3								813.373 ± 0.45 kg/m3	809.573 ± 0.45 kg/m3	805.762 ± 0.46 kg/m3			
CCCCO [butan-1-ol] + Clc1ccccc1						801.923 ± 0.47 kg/m3	798.053 ± 0.47 kg/m3	794.147 ± 0.48 kg/m3						813.373 ± 0.45 kg/m3	809.573 ± 0.45 kg/m3	805.762 ± 0.46 kg/m3
CCC(C)O (stereo unspecified) [butan-2-ol]	798.326 ± 0.56 kg/m3	794.03 ± 0.57 kg/m3	789.632 ± 0.58 kg/m3								810.689 ± 0.55 kg/m3	806.646 ± 0.56 kg/m3	802.528 ± 0.56 kg/m3			
CCC(C)O (stereo unspecified) [butan-2-ol] + Clc1ccccc1						798.326 ± 0.56 kg/m3	794.03 ± 0.57 kg/m3	789.632 ± 0.58 kg/m3						810.689 ± 0.55 kg/m3	806.646 ± 0.56 kg/m3	802.528 ± 0.56 kg/m3
Clc1ccccc1 [chlorobenzene]	1095.64 ± 0.28 kg/m3	1090.23 ± 0.27 kg/m3	1084.82 ± 0.26 kg/m3	1079.42 ± 0.25 kg/m3	1073.97 ± 0.24 kg/m3						1111.81 ± 0.3 kg/m3	1106.43 ± 0.29 kg/m3	1101.04 ± 0.28 kg/m3			
CCCCCO [pentan-1-ol]	807.278 ± 0.55 kg/m3	803.558 ± 0.56 kg/m3	799.817 ± 0.56 kg/m3								818.282 ± 0.54 kg/m3	814.635 ± 0.55 kg/m3	810.968 ± 0.55 kg/m3			
CCCCCO [pentan-1-ol] + Clc1ccccc1						807.278 ± 0.55 kg/m3	803.558 ± 0.56 kg/m3	799.817 ± 0.56 kg/m3						818.282 ± 0.54 kg/m3	814.635 ± 0.55 kg/m3	810.968 ± 0.55 kg/m3
CCCO [propan-1-ol]	795.65 ± 0.47 kg/m3	791.576 ± 0.48 kg/m3	787.466 ± 0.49 kg/m3								807.69 ± 0.46 kg/m3	803.703 ± 0.46 kg/m3	799.692 ± 0.47 kg/m3			
CCCO [propan-1-ol] + Clc1ccccc1						795.65 ± 0.47 kg/m3	791.576 ± 0.48 kg/m3	787.466 ± 0.49 kg/m3						807.69 ± 0.46 kg/m3	803.703 ± 0.46 kg/m3	799.692 ± 0.47 kg/m3
